Measurements taken from paper PMC12300041, “Tricyclic Isatin Derivatives as Anti-Inflammatory Compounds with High Kinase Binding Affinity” (Molecules, 2025).

Legend:
Test in all cases: KINOMEscan
Assay type in all cases: binding
[1] = biological target: T1, PIK4CB (Homo sapiens, UniProt Q9UBF8)
T1 construct: purchased Eurofins DiscoverX KINOMEscan
Outline: (§1)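 1 h RT binding → immobilized-ligand capture of free kinase → qPCR quantitation. Kd: 12 half-log points, max 33 μM.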

[2] = biological target: T2, GAK (Homo sapiens, UniProt O14976)
T2 construct: purchased Eurofins DiscoverX KINOMEscan
Outline: (§2)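 Compound and kinase were incubated at room temperature for 1 h, the free kinase fraction was captured with an immobilized affinity ligand, and capture was quantified by quantitative PCR; Kd values used a 12-point half-log series up to 33 μM.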

[3] = biological target: T3, PKN1 (Homo sapiens, UniProt Q16512)
T3 construct: purchased Eurofins DiscoverX KINOMEscan
Outline: as §2

[4] = biological target: T4, CAMK2G (Homo sapiens, UniProt Q13555)
T4 construct: purchased Eurofins DiscoverX KINOMEscan
Outline: as §1

[5] = biological target: T5, DYRK2 (Homo sapiens, UniProt Q92630)
T5 construct: purchased Eurofins DiscoverX KINOMEscan
Outline: as §2

[6] = biological target: T6, BTK (Homo sapiens, UniProt Q06187)
T6 construct: purchased Eurofins DiscoverX KINOMEscan
Outline: as §2

[7] = biological target: T7, PHKG2 (Homo sapiens, UniProt P15735)
T7 construct: purchased Eurofins DiscoverX KINOMEscan
Outline: as §1

[8] = biological target: T8, TTK (Homo sapiens, UniProt P33981)
T8 construct: purchased Eurofins DiscoverX KINOMEscan
T8 sequence (P33981 whole entry): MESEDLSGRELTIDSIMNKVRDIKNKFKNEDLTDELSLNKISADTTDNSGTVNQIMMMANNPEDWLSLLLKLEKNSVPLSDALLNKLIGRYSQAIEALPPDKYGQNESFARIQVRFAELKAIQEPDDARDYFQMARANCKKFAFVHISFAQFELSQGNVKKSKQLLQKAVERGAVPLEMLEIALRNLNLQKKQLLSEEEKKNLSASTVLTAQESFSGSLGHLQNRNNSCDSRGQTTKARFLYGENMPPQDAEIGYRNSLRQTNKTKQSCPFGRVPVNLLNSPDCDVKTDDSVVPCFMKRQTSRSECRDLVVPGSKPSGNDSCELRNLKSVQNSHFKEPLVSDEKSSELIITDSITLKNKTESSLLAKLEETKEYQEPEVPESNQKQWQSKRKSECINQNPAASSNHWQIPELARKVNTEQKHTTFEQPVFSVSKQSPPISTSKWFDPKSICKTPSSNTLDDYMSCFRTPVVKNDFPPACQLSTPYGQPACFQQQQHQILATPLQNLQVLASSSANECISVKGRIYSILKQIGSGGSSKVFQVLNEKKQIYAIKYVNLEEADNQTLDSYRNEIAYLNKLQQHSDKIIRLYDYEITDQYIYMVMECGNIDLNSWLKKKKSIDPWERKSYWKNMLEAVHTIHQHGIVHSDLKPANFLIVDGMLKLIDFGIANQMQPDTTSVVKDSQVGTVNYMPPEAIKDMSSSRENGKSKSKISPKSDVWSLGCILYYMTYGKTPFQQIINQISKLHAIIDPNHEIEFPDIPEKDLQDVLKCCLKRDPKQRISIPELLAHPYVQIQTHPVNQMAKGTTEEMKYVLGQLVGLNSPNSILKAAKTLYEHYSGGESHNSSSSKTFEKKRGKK
Outline: as §2

[9] = biological target: T9, NLK (Homo sapiens, UniProt Q9UBE8)
T9 construct: purchased Eurofins DiscoverX KINOMEscan
Outline: as §1

[10] = biological target: T10, EGFR (G719C) (Homo sapiens, UniProt P00533, G719C)
T10 construct: purchased Eurofins DiscoverX KINOMEscan
Outline: as §2

[11] = biological target: T11, EGFR (T790M) (Homo sapiens, UniProt P00533, T790M)
T11 construct: purchased Eurofins DiscoverX KINOMEscan
Outline: as §1

[12] = biological target: T12, LKB1 (Homo sapiens, UniProt Q15831)
T12 construct: purchased Eurofins DiscoverX KINOMEscan
T12 sequence (Q15831 whole entry): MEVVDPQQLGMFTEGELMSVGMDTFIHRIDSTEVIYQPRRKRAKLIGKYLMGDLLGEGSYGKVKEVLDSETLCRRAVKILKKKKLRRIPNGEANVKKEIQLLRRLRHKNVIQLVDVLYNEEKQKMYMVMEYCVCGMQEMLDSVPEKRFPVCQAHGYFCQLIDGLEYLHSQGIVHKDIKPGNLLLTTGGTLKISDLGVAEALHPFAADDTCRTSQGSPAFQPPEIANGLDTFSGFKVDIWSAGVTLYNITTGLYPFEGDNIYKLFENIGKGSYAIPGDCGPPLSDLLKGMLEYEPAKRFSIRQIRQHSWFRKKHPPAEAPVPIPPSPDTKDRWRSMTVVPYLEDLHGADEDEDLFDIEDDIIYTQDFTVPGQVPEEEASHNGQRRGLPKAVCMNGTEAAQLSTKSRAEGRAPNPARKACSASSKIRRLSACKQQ
Outline: as §1

[13] = biological target: T13, MAP3K2 (Homo sapiens, UniProt Q9Y2U5)
T13 construct: purchased Eurofins DiscoverX KINOMEscan
Outline: as §2

[14] = biological target: T14, PRP4 (Homo sapiens, UniProt Q13523)
T14 construct: purchased Eurofins DiscoverX KINOMEscan
Outline: as §1

[15] = biological target: T15, JAK3 (JH1domain-cat.) (Homo sapiens, UniProt P52333)
T15 construct: JAK3 (JH1domain-cat.); purchased Eurofins DiscoverX KINOMEscan
T15 sequence (P52333 813-1124 limits assumed): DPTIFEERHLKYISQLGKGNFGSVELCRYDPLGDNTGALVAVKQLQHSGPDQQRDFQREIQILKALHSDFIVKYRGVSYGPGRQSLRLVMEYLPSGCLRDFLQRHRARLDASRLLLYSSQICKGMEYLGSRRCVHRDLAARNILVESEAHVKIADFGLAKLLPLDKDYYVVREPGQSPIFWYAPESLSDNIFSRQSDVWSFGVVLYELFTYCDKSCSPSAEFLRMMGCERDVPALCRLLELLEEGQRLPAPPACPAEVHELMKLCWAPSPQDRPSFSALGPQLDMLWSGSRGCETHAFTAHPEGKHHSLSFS
Outline: as §2

[16] = biological target: T16, MEK2 (Homo sapiens, UniProt P36507)
T16 construct: purchased Eurofins DiscoverX KINOMEscan
Outline: as §1

[17] = biological target: T17, JNK2 (Homo sapiens, UniProt P45984)
T17 construct: purchased Eurofins DiscoverX KINOMEscan
Outline: as §2

[18] = biological target: T18, RSK1 (Kin. Dom.2-C-term.) (Homo sapiens, UniProt Q15418)
T18 construct: RSK1 (Kin. Dom.2-C-term.); purchased Eurofins DiscoverX KINOMEscan
Outline: as §2

[19] = biological target: T19, STK35 (Homo sapiens, UniProt Q8TDR2)
T19 construct: purchased Eurofins DiscoverX KINOMEscan
Outline: as §1

[20] = biological target: T20, MINK (Homo sapiens, UniProt Q8N4C8)
T20 construct: purchased Eurofins DiscoverX KINOMEscan
T20 sequence (Q8N4C8 whole entry): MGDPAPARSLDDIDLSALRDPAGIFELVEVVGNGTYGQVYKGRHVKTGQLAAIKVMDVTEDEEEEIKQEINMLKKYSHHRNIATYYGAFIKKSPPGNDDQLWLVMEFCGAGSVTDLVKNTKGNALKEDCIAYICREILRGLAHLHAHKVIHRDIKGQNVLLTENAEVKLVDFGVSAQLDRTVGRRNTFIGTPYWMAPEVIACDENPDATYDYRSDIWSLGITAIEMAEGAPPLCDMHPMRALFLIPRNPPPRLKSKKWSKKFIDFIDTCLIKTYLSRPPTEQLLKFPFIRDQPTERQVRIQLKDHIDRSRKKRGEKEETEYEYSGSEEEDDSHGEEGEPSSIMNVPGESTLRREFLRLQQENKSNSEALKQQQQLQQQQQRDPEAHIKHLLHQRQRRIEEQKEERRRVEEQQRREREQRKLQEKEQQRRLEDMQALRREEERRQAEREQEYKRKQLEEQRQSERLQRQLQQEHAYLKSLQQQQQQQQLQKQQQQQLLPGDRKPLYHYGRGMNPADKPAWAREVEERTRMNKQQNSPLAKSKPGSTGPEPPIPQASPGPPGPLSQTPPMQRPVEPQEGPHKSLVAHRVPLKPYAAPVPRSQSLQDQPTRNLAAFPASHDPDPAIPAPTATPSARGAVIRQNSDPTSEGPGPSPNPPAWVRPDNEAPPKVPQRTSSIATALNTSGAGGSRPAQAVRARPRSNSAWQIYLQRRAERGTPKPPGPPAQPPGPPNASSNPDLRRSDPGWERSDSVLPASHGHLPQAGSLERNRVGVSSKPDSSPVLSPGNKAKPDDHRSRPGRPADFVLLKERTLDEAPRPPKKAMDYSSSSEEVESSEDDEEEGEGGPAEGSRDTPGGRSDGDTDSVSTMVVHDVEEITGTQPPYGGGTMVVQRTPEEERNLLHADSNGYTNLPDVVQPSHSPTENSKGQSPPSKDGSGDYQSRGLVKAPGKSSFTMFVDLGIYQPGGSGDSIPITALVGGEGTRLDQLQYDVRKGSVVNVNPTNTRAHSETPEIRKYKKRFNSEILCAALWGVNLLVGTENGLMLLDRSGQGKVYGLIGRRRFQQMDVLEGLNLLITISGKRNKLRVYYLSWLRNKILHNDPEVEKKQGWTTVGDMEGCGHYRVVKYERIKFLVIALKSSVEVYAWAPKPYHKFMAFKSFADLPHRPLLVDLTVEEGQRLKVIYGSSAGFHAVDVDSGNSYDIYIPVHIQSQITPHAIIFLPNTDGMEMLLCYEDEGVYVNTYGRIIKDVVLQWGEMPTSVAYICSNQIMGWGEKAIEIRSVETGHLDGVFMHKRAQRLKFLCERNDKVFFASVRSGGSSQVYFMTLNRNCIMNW
Outline: as §1

[21] = biological target: T21, CSNK1G3 (Homo sapiens, UniProt Q9Y6M4)
T21 construct: purchased Eurofins DiscoverX KINOMEscan
Outline: as §2

[22] = biological target: T22, LRRK2 (Homo sapiens, UniProt Q5S007)
T22 construct: purchased Eurofins DiscoverX KINOMEscan
Outline: as §1

[23] = biological target: T23, MTOR (Homo sapiens, UniProt P42345)
T23 construct: purchased Eurofins DiscoverX KINOMEscan
Outline: as §1

[24] = biological target: T24, PFTAIRE2 (Homo sapiens, UniProt Q96Q40)
T24 construct: purchased Eurofins DiscoverX KINOMEscan
T24 sequence (Q96Q40 whole entry): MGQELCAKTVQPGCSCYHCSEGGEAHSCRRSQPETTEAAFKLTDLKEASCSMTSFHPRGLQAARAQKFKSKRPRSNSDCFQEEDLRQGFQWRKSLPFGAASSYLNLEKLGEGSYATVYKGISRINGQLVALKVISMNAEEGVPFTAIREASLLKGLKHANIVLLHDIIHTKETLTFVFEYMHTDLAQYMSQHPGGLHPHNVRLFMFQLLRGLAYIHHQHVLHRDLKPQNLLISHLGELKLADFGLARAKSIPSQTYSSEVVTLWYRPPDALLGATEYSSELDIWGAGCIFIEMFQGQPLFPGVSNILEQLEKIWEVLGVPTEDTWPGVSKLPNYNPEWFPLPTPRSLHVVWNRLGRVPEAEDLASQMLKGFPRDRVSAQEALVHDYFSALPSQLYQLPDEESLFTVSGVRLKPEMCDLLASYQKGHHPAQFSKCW
Outline: as §1

[25] = biological target: T25, AURKC (Homo sapiens, UniProt Q9UQB9)
T25 construct: purchased Eurofins DiscoverX KINOMEscan
Outline: as §1

[26] = biological target: T26, SRMS (Homo sapiens, UniProt Q9H3Y6)
T26 construct: purchased Eurofins DiscoverX KINOMEscan
T26 sequence (Q9H3Y6 whole entry): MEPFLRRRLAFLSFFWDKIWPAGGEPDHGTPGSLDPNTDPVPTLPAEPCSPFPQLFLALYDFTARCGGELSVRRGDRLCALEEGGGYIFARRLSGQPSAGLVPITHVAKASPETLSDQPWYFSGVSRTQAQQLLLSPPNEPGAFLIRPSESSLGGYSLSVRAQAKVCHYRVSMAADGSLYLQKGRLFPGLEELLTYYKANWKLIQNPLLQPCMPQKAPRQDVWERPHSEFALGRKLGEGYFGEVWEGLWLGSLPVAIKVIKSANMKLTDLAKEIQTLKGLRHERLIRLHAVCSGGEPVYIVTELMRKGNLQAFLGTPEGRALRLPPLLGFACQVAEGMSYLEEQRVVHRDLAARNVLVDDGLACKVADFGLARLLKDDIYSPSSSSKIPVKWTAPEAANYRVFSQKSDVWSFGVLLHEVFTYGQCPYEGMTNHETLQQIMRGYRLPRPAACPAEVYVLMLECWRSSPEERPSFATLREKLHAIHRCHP
Outline: as §2

[27] = biological target: T27, LTK (Homo sapiens, UniProt P29376)
T27 construct: purchased Eurofins DiscoverX KINOMEscan
Outline: as §2

[28] = biological target: T28, BUB1 (Homo sapiens, UniProt O43683)
T28 construct: purchased Eurofins DiscoverX KINOMEscan
Outline: as §1

[29] = biological target: T29, ULK2 (Homo sapiens, UniProt Q8IYT8)
T29 construct: purchased Eurofins DiscoverX KINOMEscan
Outline: as §2

[30] = biological target: T30, NEK2 (Homo sapiens, UniProt P51955)
T30 construct: purchased Eurofins DiscoverX KINOMEscan
Outline: as §2

[31] = biological target: T31, LIMK1 (Homo sapiens, UniProt P53667)
T31 construct: purchased Eurofins DiscoverX KINOMEscan
Outline: as §2

[32] = biological target: T32, TAK1 (Homo sapiens, UniProt O43318)
T32 construct: purchased Eurofins DiscoverX KINOMEscan
Outline: as §1

[33] = biological target: T33, TESK1 (Homo sapiens, UniProt Q15569)
T33 construct: purchased Eurofins DiscoverX KINOMEscan
Outline: as §1

[34] = biological target: T34, ERN1 (Homo sapiens, UniProt O75460)
T34 construct: purchased Eurofins DiscoverX KINOMEscan
Outline: as §2

[35] = biological target: T35, EGFR (L858R) (Homo sapiens, UniProt P00533, L858R)
T35 construct: purchased Eurofins DiscoverX KINOMEscan
T35 sequence (P00533 25-1210 L858R): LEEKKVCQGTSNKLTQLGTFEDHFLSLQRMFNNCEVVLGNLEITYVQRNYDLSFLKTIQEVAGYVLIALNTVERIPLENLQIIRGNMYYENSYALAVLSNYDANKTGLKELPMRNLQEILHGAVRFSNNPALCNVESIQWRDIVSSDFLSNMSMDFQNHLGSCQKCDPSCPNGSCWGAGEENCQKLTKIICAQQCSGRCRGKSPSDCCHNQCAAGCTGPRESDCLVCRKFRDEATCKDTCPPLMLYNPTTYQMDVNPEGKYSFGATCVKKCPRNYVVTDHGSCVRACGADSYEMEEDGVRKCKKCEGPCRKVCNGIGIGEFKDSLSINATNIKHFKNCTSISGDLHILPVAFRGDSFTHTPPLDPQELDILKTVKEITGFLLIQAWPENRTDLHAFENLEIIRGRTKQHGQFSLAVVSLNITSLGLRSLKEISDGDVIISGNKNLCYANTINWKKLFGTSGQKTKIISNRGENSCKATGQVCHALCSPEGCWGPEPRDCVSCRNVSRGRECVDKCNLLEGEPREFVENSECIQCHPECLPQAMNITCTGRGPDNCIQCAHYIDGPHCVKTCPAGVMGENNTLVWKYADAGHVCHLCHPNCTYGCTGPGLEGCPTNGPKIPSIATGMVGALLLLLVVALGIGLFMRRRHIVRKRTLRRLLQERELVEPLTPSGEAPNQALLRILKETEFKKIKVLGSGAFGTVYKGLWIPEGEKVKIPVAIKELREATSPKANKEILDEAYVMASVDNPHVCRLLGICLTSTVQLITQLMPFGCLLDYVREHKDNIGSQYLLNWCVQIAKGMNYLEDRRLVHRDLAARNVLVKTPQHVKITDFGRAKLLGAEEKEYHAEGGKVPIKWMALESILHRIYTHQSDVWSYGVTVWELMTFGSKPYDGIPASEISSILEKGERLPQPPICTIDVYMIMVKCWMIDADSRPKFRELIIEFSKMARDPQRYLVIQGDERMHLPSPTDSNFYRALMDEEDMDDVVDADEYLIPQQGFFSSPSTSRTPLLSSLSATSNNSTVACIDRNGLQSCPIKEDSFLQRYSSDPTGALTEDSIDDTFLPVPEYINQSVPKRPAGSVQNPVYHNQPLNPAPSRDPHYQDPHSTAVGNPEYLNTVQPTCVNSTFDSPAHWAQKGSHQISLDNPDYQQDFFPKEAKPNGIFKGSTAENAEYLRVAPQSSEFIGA
Outline: as §1

[36] = biological target: T36, KIT-autoinhibited (Homo sapiens, UniProt P10721)
T36 construct: purchased Eurofins DiscoverX KINOMEscan
Outline: as §1

[37] = biological target: T37, SRPK3 (Homo sapiens, UniProt Q9UPE1)
T37 construct: purchased Eurofins DiscoverX KINOMEscan
Outline: as §2

[38] = biological target: T38, EPHB4 (Homo sapiens, UniProt P54760)
T38 construct: purchased Eurofins DiscoverX KINOMEscan
Outline: as §1

[39] = biological target: T39, NIM1 (Homo sapiens, UniProt Q8IY84)
T39 construct: purchased Eurofins DiscoverX KINOMEscan
Outline: as §2

Q: How did the inhibition at 10 µM [1] turn out when `O=C1Nc2c(cc([N+](=O)[O-])c3c2CCCC3)C1=NO` [Compound 5d, 3-(Hydroxyimino)-5-nitro-1,3,6,7,8,9-hexahydro-2H-benzo[g]indol-2-one] was run?
A: 95.9%

Q: And the inhibition at 10 µM [2]?
A: 49%

Q: And the inhibition at 10 µM [3]?
A: 9%

Q: And the inhibition at 10 µM [4]?
A: 25%

Q: And the inhibition at 10 µM [5]?
A: 81%

Q: And the inhibition at 10 µM [6]?
A: 39%

Q: What about the inhibition at 10 µM [7] of the same compound?
A: 45%

Q: What about the inhibition at 10 µM [8] of the same compound?
A: 95.6%

Q: And the inhibition at 10 µM [9]?
A: 11%

Q: And the inhibition at 10 µM [10]?
A: 24%

Q: And the inhibition at 10 µM [11]?
A: 0%

Q: What about the inhibition at 10 µM [12] of the same compound?
A: 0%

Q: And the inhibition at 10 µM [13]?
A: 79%

Q: What about the inhibition at 10 µM [14] of the same compound?
A: 38%

Q: What about the inhibition at 10 µM [15] of the same compound?
A: 49%

Q: And the inhibition at 10 µM [16]?
A: 87%

Q: What about the inhibition at 10 µM [17] of the same compound?
A: 49%

Q: And the inhibition at 10 µM [18]?
A: 60%

Q: And the inhibition at 10 µM [19]?
A: 1%

Q: What about the inhibition at 10 µM [20] of the same compound?
A: 70%

Q: What about the inhibition at 10 µM [21] of the same compound?
A: 83%

Q: What about the inhibition at 10 µM [22] of the same compound?
A: 96%

Q: And the inhibition at 10 µM [23]?
A: 56%

Q: What about the inhibition at 10 µM [24] of the same compound?
A: 6%

Q: And the inhibition at 10 µM [25]?
A: 39%

Q: What about the inhibition at 10 µM [26] of the same compound?
A: 29%

Q: What about the inhibition at 10 µM [27] of the same compound?
A: 64%

Q: What about the inhibition at 10 µM [28] of the same compound?
A: 95.6%

Q: What about the inhibition at 10 µM [29] of the same compound?
A: 52%

Q: What about the inhibition at 10 µM [30] of the same compound?
A: 16%

Q: And the inhibition at 10 µM [31]?
A: 0%

Q: What about the inhibition at 10 µM [32] of the same compound?
A: 67%

Q: What about the inhibition at 10 µM [33] of the same compound?
A: 9%

Q: What about the inhibition at 10 µM [34] of the same compound?
A: 29%

Q: What about the inhibition at 10 µM [35] of the same compound?
A: 17%

Q: And the inhibition at 10 µM [36]?
A: 0%

Q: What about the inhibition at 10 µM [37] of the same compound?
A: 66%

Q: What about the inhibition at 10 µM [38] of the same compound?
A: 0%

Q: And the inhibition at 10 µM [39]?
A: 52%
